A word on the inhibition: it is the relative decrease from the control value, in per cent. A low value points to little suppression. As usually defined, the IC50 is the point on the concentration scale where inhibition reaches its midpoint. A high value points to lower potency.

From patent US20260256747A1, “ARYL-TRIAZOLYL AND RELATED GPR84 ANTAGONISTS AND USES THEREOF” (Liminal BioSciences Limited, priority 2022, published 2026) come the findings set out here.

The target of this test is T1, human GPR84 receptor (Homo sapiens, UniProt Q9NQS5).
T1 construct: host or cells: HEK293 cells, transient transfection
T1 sequence (Q9NQS5 whole entry): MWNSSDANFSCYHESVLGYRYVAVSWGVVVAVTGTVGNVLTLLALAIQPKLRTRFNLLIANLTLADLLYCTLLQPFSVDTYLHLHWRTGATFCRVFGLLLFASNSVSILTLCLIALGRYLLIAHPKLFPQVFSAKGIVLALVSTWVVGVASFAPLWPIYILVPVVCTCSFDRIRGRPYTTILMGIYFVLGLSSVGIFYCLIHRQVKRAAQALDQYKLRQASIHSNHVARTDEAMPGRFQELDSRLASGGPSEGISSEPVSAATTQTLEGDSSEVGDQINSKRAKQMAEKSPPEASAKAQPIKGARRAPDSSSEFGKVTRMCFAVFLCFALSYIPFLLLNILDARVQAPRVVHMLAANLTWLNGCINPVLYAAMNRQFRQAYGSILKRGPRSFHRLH
In words: Gαi biosensor BRET assay in HEK293 cells transfected with GPR84, stimulated with the GPR84 agonist ZQ-16. The test is classed as cell-based. To be noted: 200 nmol/L ZQ-16; for inhibition at 2 µM / inhibition at 10 µM: HEK293, single concentration; for inhibition at 2 µM: concentration class A = 2 μM; for inhibition at 10 µM: concentration class F = 10 μM. An excerpt: Background—The following assays can be used for determination of GPR84 activation in living HEK293 cells. The Gαi BRET biosensor (Gagnon et al., 2018; Gales et al., 2006. Nat Struct Mol Biol. 13, 778-86; Saulieres et al., 2012. Nat Chem Biol. 8, 622-30) allows to directly monitor GPR84-mediated activation of Gαi. The Gαi biosensor consists of a Rluc8-tagged Gαi2 subunit, a GFP10-tagged Gγ2 subunit, and an untagged GB1. Agonist stimulation and GPR84 activation triggers a physical separation between the RLuc8-Gαi donor and the GFP10-Gγ2 acceptor, resulting in a decrease in BRET signal whose amplitude is correlated to ligand efficacy (Gales et al., 2006). Moreover, signaling functions of GPCRs are tightly regulated by endocytosis, the targeting of receptors to endosomes and their sorting to lysosomes or recycling to the plasma membrane. The early endosomes (EEs) trafficking assay (Namkung et al., 2016. Nat Commun. 7, 12178) uses Rluc8-tagged GPR84 and Renilla GFP (rGFP) attached to the FYVE domain from human endofin/zinc finger FYVE domain-containing protein 16, which binds phosphatidylinositol 3-phosphate in EEs. Agonist stimulation of GPR84-Rluc8 leads to trafficking of the receptor to EEs, and ensuing increase of the donor concentration relative to the rGFP-FYVE acceptor anchored in the same cellular compartment, and thus results in an increase in BRET signal.
Plasmids—The cDNA clones for human GPR84 receptor, human Gαi2, Gβ1, and Gγ2 were obtained from the cDNA Resource Center (www.cdna.org). GFP10 (F64L, S147P, S202F and H231L variant of Aequorea victoria Green Fluorescent Protein) gBlocks gene fragments (Integrated DNA Technologies, IA) and linker were inserted in frame at the N-terminus of human Gγ2. Rluc8 (A^55T, Cl24A, S130A, K136R, A^143M, M185V, M253L, and S287L variant of the Renilla reniformis luciferase) gBlocks gene fragment was inserted with linkers in frame in between residues 91 and 92 of Gαi2 or at the C-terminus of GPR84. The FYVE domain from human endofin (residues Q739 to K806) attached in frame at the C terminus of a humanized Renilla GFP (rGFP), were synthesized as gBlocks gene fragments.
Bioluminescence Resonance Energy Transfer (BRET) Measurement-HEK293 cells were transfected with GPR84-Rluc8 and rGFP-FYVE for the EEs trafficking biosensor or with GPR84, Gαi2-Rluc8, GFP10-Gγ2, and Gβ1 for the Gαi biosensor. The following day, transiently transfected cells were seeded in 96-well white clear bottom microplates coated with poly-D-lysine and left in culture for 24 hours. Cells were washed once with Tyrode's buffer (140 mmol/L NaCl, 1 mmol/L CaCl2, 2.7 mmol/L KCl, 0.49 mmol/L MgCl2, 0.37 mmol/L NaH2PO4, 5.6 mmol/L glucose, 12 mmol/L NaHCO3, and 25 mmol/L HEPES, pH 7.5) before performing assays in Tyrode's buffer. Test compounds were incubated with cells for 5 (Gai) or 15 (EEs) minutes at 37° C. before addition of 200 nmol/L of the GPR84 agonist ZQ-16 (2-(Hexylthio)-6-hydroxy-4 (3H)-pyrimidinone) for 5 minutes at room temperature (Gai) or 30 minutes at 37° C. (EEs). The Rluc8 substrate coelenterazine 400A (Prolume, Lakeside, AZ) was added at a final concentration of 5 μmol/L and BRET readings were collected using an Infinite M1000 microplate reader (Tecan, Morrisville, NC). BRET2 readings between Rluc8 and GFP10 or rGFP were collected by sequential integration of the signals detected in the 370 to 450 nm (Rluc8) and 510 to 540 nm (GFP10, rGFP) windows. The BRET signal was calculated as the ratio of light emitted by acceptor (GFP10, rGFP) over the light emitted by donor (Rluc8). The values were corrected to net BRET by subtracting the background BRET signal obtained in cells transfected with Rluc8 constructs alone. Ligand-promoted net BRET values were calculated by subtracting vehicle-induced net BRET from ligand-induced net BRET.
(In general: Bioluminescence resonance energy transfer reports proximity on the nanometre scale.)

Consider `Cc1ccc(C#CC2CC2)cc1C(F)(F)c1cn(CC2CCCCO2)nn1` (stereo not shown) [Compound I-99], for which the inhibition at 2 µM is 50 to 75%.

The molecule `Cn1nnnc1-c1cnc(-c2cn(CC3OCC4(CC4)CO3)nn2)c(OC2CC2)c1` [Compound I-222] showed an inhibition at 10 µM not above 25%.

`Cc1cc(C#CC2CC2)ccc1-c1nnc(-c2cn(CC(=O)N(C)C)nn2)o1` [Compound I-259] came in with an inhibition at 10 µM not above 25%.

In turn, `Cn1nccc1-c1cnc(-c2cn(CC3OCC4(CC4)CO3)nn2)c(OC2CC2)c1` [Compound I-237] registered an inhibition at 10 µM of 50 to 75%.

For `CN(C)C(=O)Cn1cnc(-c2ncc(C#CC3CC3)cc2OC2CC2)c1` [Compound I-51], the inhibition at 10 µM was more than 75%.

Consider `Cc1cc(C#CC2CC2)cnc1-c1nnc(-c2cn(CC3OCC4(CC4)CO3)nn2)o1` [Compound I-256], for which the inhibition at 10 µM was not above 25%.

The molecule `CN(C)c1cc(N2CC3(COC3)C2)ccc1-c1cn(CC2OCC3(CC3)CO2)cn1` [Compound I-42] came in with an inhibition at 10 µM of more than 75%.

With `C(#Cc1cnc(-c2cn(CC3OCC4(CC4)CO3)nn2)c(OC2CC2)c1)CN1CC2(CC2)C1` [Compound I-9], the IC50 is not above 300 nM and the inhibition at 2 µM was more than 75%.

As to `Cn1nncc1-c1cnc(-c2cn(CC3OCC4(CC4)CO3)nn2)c(OC2CC2)c1` [Compound I-225], the inhibition at 10 µM lay in the range of 50 to 75%.

For `Cc1cc(N2CCN(Cc3ccccn3)CC2)ccc1-c1cn(CC(=O)N(C)C)cn1` [Compound I-62], the inhibition at 10 µM is 25 to 50%.

Molecule `Cn1ncc(-c2cnc(-c3cn(CC4OCC5(CC5)CO4)nn3)c(OC3CC3)c2)n1` [Compound I-226] came in with an IC50 not above 300 nM and an inhibition at 2 µM of more than 75%.

As to `O=C(O)Cn1cc(-c2ncc(C#CC3CC3)cc2OC2CC2)nn1` [Compound I-63], the inhibition at 10 µM was not above 25%.

On to `NC(=O)c1cnc(-c2cn(CC3OCC4(CC4)CO3)nn2)c(OC2CC2)c1` [Compound I-204], for which the inhibition at 10 µM was 50 to 75%.

Turning to `CN(C)C(=O)Cn1cc(-c2ncc(C#N)cc2OC2CC2)nn1` [Compound I-240], the inhibition at 10 µM is not above 25%.

Consider `O=C(Cn1cc(-c2ncc(C#CC3CC3)cc2OC2CC2)nn1)N1C[C@@H](O)[C@@H](O)C1` [Compound I-248], for which the inhibition at 10 µM is more than 75%.

In turn, `C(#CC1CC1)c1cnc(-c2cnn(CC3OCC4(CC4)CO3)c2)c(OC2CC2)c1` [Compound I-218] yielded an IC50 of 300 to 1000 nM and an inhibition at 2 µM of more than 75%.

For `CC(O)C1CN(c2ccc(-c3cn(CC4OCC5(CC5)CO4)nn3)c(N(C)C)c2)C1` (stereo not shown) [Compound I-5, 1-(1-(4-(1-(5,7-dioxaspiro[2.5]octan-6-ylmethyl)-1H-1,2,3-triazol-4-yl)-3-(dimethylamino)phenyl)azetidin-3-yl)ethanol], the inhibition at 10 µM was more than 75%.

For `Cc1cc(N2CCN(C(C)c3ccccn3)CC2)ccc1-c1cn(CC2OCC3(CC3)CO2)cn1` (stereo not shown) [Compound I-48], the IC50 is not above 300 nM and the inhibition at 10 µM was more than 75%.

`CNC(=O)Cn1cc(-c2ncc(C#CC3CC3)cc2OC2CC2)nn1` [Compound I-67]: the inhibition at 10 µM is 25 to 50%.

`CC1(C)COC(Cn2cc(-c3ncc(C(F)(F)F)cc3OC3CC3)nn2)OC1` [Compound I-49] had an inhibition at 2 µM of 50 to 75%.

`O=C(Cn1cc(-c2ncc(C#CC3CC3)cc2OC2CC2)cn1)N1CCCC1` [Compound I-217]: the inhibition at 10 µM is 25 to 50%.

Regarding `CCCOc1cc(C#CC2CC2)cnc1-c1cn(CC(=O)N(C)C)nn1` [Compound I-221], the inhibition at 10 µM was 50 to 75%.

`CC1(C)CN(CC#Cc2cnc(-c3cn(CC4OCC5(CC5)CO4)nn3)c(CC3CC3)c2)C1` [Compound I-118] had an IC50 not above 300 nM and an inhibition at 2 µM of more than 75%.

In turn, `CN(C)C(=O)CNc1cnc(-c2cn(CC3OCC4(CC4)CO3)nn2)c(OC2CC2)c1` [Compound I-73] came in with an inhibition at 10 µM of more than 75%.

In turn, `c1cc(-c2cnc(-c3cn(CC4OCC5(CC5)CO4)nn3)c(OC3CC3)c2)n[nH]1` [Compound I-235] showed a half-maximal inhibitory concentration (IC50) not above 300 nM and an inhibition at 2 µM of more than 75%.
